Holding throughout (assay): microscale thermophoresis
What all share (type): binding

For experiment [1], the target named is T1, orotate phosphoribosyltransferase (PyrE) (Escherichia coli, UniProt P0A7E3).
T1 sequence (P0A7E3 2-213): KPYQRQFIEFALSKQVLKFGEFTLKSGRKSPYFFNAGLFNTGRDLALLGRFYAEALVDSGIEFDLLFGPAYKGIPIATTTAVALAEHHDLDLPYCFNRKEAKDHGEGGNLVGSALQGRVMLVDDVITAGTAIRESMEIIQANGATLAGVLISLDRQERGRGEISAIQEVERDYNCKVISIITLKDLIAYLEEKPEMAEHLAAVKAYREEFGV

The next experiment addresses T2, FabF (Escherichia coli, UniProt P0AAI5).
T2 sequence (P0AAI5 2-413): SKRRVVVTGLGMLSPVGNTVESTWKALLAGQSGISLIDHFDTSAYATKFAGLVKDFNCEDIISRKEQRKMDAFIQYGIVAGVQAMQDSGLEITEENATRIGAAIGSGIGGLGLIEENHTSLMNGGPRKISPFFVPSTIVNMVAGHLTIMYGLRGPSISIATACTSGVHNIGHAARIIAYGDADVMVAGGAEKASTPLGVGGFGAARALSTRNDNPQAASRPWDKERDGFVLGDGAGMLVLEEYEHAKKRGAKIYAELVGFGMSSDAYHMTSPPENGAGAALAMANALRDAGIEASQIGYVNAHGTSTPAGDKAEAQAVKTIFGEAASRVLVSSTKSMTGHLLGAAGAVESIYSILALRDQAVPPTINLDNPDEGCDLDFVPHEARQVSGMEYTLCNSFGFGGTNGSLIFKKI

For experiment [2], the target named is T1, orotate phosphoribosyltransferase (PyrE). The source holds these as a separate data set.

Read-outs that look alike come from different tables or passages of the source. Where a SMILES comes first, the peptide text is derived from it.

As to `O=P(O)(O)OC[C@H]1O[C@H](OP(=O)(O)OP(=O)(O)O)[C@H](O)[C@@H]1O` [PRPP], the Kd in experiment [1] stood at 8.21 µM. Take `CC(C)CC(NC(=O)C(N)C(C)C)C(=O)O` (stereo not drawn) [Val-Leu] (H-Val-Leu-OH; configuration not given here): at FabF, the Kd lay within 12 to 14 µM.

On to `Cc1cc2nc3[nH]c(=O)[nH]c(=O)c3nc2cc1C` [lumichrome], for which binding in experiment [2] was characterised by a dissociation constant (Kd) of 90.3 µM.

These data come from article PMC12148380 (iScience, 2025).
